Patent US9688639B2, “Solid forms of fungicidal pyrazoles” (E. I. DU PONT DE NEMOURS AND COMPANY, priority 2013, dated 2017)

How the values were obtained:
Type in all cases: physicochemical
[1] = Single crystal X-ray diffraction (calculated density); conditions: from single crystal X-ray data collected at −100° C.
Procedure: Suitable single crystals for polymorph Form A were grown from methanol evaporation. A colorless irregular plate with approximate dimensions of 0.520×0.300×0.060 mm was chosen for data collection and mounted on a polymer loop. Single crystal data was collected using a Bruker Platform goniometer with an Apex-II detector. The diffractometer was equipped with an incident beam monochromator using Mo-Kα radiation (λ=0.71073 Å) and a monocap collimator. The crystals were cooled in a −100° C. nitrogen flow during data collection.
The data were indexed and integrated using the Apex-II suite of programs including Sainplus and SADABS. The monoclinic cell parameters were determined to be: a=7.870(5) Å, b=28.037(16) Å, c=7.976(5) Å, beta=103.875(10) °, volume=1708.6(17) Å^3. The space group was determined to be P21/n. The molecular weight was 412.66 g/mol giving a calculated density of 1.604 g/cm^3, and μ(Mo)=2.59 mm^−1 for Z=4. Data reduction led to 3487 unique data from a two-theta range=5.46 to 52.92°. […]
The data were indexed and integrated using the Apex-II suite of programs including Sainplus and SADABS. The orthorhombic cell parameters were determined to be: a=14.285(3) Å, b=11.464(2) Å, c=20.010(3) Å, volume=3276.9(10) Å^3. The space group was determined to be Pbca. The molecular weight was 412.66 g/mol giving a calculated density of 1.673 g/cm^3, and μ(Mo)=2.70 mm^−1 for Z=8. […]

[2] = Differential Scanning Calorimetry; conditions: DSC, heated at 2° C./min
Procedure: Differential Scanning Calorimetry was used to study the crystalline phases of various samples of Compound 1. Data were obtained with a TA Instruments Q20-1220 Differential Scanning Calorimeter (V24.2 Build 107) using a standard cell (FC-03859). Samples were prepared by weighing between 4 and 5 mg of Compound 1 in a gold plated pan (Fauske and Associates, LLC, Burr Ridge, Ill.; part number DSC-M20). The corresponding lid was crimped tightly to the pan and the assembled crucible was inserted into the calorimeter. An empty crucible of the same type was prepared the same way and inserted as the reference. After the instrument was initialized, the sample was first equilibrated at 25° C. and then heated at 2° C./min to a maximum temperature of 225° C.

[3] = Temperature-dependent X-ray powder diffraction (stability with respect to temperature); conditions: heated from 25° C. at 10° C. per minute; pXRD
Procedure: To assess the stability of polymorph Form B of Compound 1 with respect to temperature, X-ray powder diffraction patterns were obtained while heating a sample of Form B from 25° C. to above its melting point. The measurement was conducted at the 5-IDD beam line at the Advanced Photon Source synchrotron located at the Argonne National Laboratory (Argonne, Ill., USA). A Differential-Scanning Calorimeter (DSC, Model DSC600, Linkam Scientific Instruments, Tadworth, U.K.) was mounted in vertical orientation to allow insertion of the DSC into the X-ray beam. The DSC was positioned in the beam line to accept a 100-200 μm square beam under high vacuum. The standard quartz window was replaced with polyimide film (Kapton®, 8 μm thickness, DuPont, Wilmington, Del., USA). An internal thermocouple was installed for temperature recording. A circular charged couple device (CCD) detector (Model Mar165, 165 mm diameter, Marresearch GmbH, Norderstedt, Germany) was used to detect the X-rays scattered from the sample. The detector was equipped with an aluminum cone that covered the detector and extended 100 mm from the face of the detector. This cone was equipped with a beam stop support and 5×3 mm lead beam stop. The cone was continuously purged with helium to minimize air scattering. […]

Compound	calculated density [1]	broad endotherm signal maximum (transition of Form B to Form A) [2]	heat of transition ([2]; Form B to Form A)	temperature until which the form persists before it converts to polymorph Form A [3]
Cc1nn(C)c(Nc2c(F)cccc2Cl)c1-c1ccc(F)cc1Br [polymorph Form A, 4-(2-bromo-4-fluorophenyl)-N-(2-chloro-6-fluorophenyl)-1,3-dimethyl-1H-pyrazol-5-amine]	1.604 g/mL	–	–	–
Cc1nn(C)c(Nc2c(F)cccc2Cl)c1-c1ccc(F)cc1Br [polymorph Form B, 4-(2-bromo-4-fluorophenyl)-N-(2-chloro-6-fluorophenyl)-1,3-dimethyl-1H-pyrazol-5-amine]	1.673 g/mL	about 148 °C	12 J/g	138 °C
